From PubChem BioAssay (NCI)
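How tested: cells in 96-well plates exposed to compound for 48 hours at five concentrations. Abbreviation: GI50, concentration required for 50% inhibition of growth. Definition used: TGI = concentration required for complete inhibition of growth.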

Columns and labels:
Experiment in all cases: DTP human tumour cell line panel, 48 h
[1] = tested on: DU-145 prostate
[2] = tested on: SK-MEL-2 melanoma
[3] = tested on: UO-31 renal
[4] = tested on: MOLT-4 leukemia
[5] = tested on: NCI-H226 lung
[6] = tested on: T-47D breast
[7] = tested on: RXF 393 renal
[8] = tested on: HT29 colon
[9] = tested on: NCI-H23 lung
[10] = tested on: COLO 205 colon
[11] = tested on: SF-268 CNS
[12] = tested on: HOP-92 NSCLC
[13] = tested on: KM12 colon
[14] = tested on: OVCAR-8 ovarian
[15] = tested on: EKVX NSCLC
[16] = tested on: HL-60(TB) leukemia
[17] = tested on: HCC-2998 colon
[18] = tested on: SNB-75 CNS
[19] = tested on: HOP-62 NSCLC
[20] = tested on: A498 renal
[21] = tested on: A549 NSCLC
[22] = tested on: SF-539 CNS
[23] = tested on: SNB-19 CNS
[24] = tested on: SW-620 colon
[25] = tested on: MALME-3M melanoma
[26] = tested on: MCF7 breast
[27] = tested on: SK-MEL-28 melanoma
[28] = tested on: CAKI-1 renal
[29] = tested on: TK-10 renal
[30] = tested on: SK-MEL-5 melanoma
[31] = tested on: RPMI-8226 leukemia
[32] = tested on: PC-3 prostate
[33] = tested on: HS 578T breast
[34] = tested on: NCI-H460 lung
[35] = tested on: NCI/ADR-RES ovarian
[36] = tested on: U251 CNS
[37] = tested on: ACHN renal
[38] = tested on: LOX IMVI melanoma
[39] = tested on: SR leukemia
[40] = tested on: CCRF-CEM leukemia
[41] = tested on: NCI-H522 lung
[42] = tested on: 786-0 renal
[43] = tested on: M14 melanoma
[44] = tested on: MDA-MB-435
[45] = tested on: MDA-MB-231 breast
[46] = tested on: SK-OV-3 ovarian
[47] = tested on: HCT-116 colon
[48] = tested on: UACC-257 melanoma
[49] = tested on: OVCAR-3 ovarian
[50] = tested on: BT-549 breast
[51] = tested on: OVCAR-5 ovarian
[52] = tested on: UACC-62 melanoma
[53] = tested on: SN12C renal
[54] = tested on: HCT-15 colon
[55] = tested on: SF-295 CNS
[56] = tested on: K-562 leukemia
[57] = tested on: OVCAR-4 ovarian
[58] = tested on: IGROV1 ovarian

Which GI50 [1] does the source give for `ClCc1cccc2c(CCl)cccc12` here?
The GI50 was 1.76 µM.

And the TGI [1]?
The TGI was 4.08 µM.

And the GI50 [2]?
The GI50 was 20.4 µM.

What about the TGI [2] of the same compound?
Its TGI is 67.4 µM.

What about the GI50 [3] of the same compound?
The GI50 was 2.2 µM.

And the TGI [3]?
Its TGI is 8.87 µM.

What about the GI50 [4] of the same compound?
Its GI50 is 3.98 µM.

What about the TGI [4] of the same compound?
The TGI was over 100 µM.

What about the GI50 [5] of the same compound?
Its GI50 is 12 µM.

What about the TGI [5] of the same compound?
The TGI was 30.6 µM.

What about the GI50 [6] of the same compound?
The GI50 was 1.81 µM.

What about the TGI [6] of the same compound?
The TGI was 10.5 µM.

What about the GI50 [7] of the same compound?
Its GI50 is 3.33 µM.

What about the TGI [7] of the same compound?
Its TGI is 18 µM.

And the GI50 [8]?
Its GI50 is 2.88 µM.

What about the TGI [8] of the same compound?
The TGI was 11.2 µM.

What about the GI50 [9] of the same compound?
Its GI50 is 5.2 µM.

What about the TGI [9] of the same compound?
Its TGI is 22.8 µM.

And the GI50 [10]?
Its GI50 is 2.4 µM.

What about the TGI [10] of the same compound?
The TGI was 7.14 µM.

And the GI50 [11]?
The GI50 was 2.95 µM.

What about the TGI [11] of the same compound?
Its TGI is 15 µM.

And the GI50 [12]?
The GI50 was 2.83 µM.

What about the TGI [12] of the same compound?
The TGI was 18.7 µM.

What about the GI50 [13] of the same compound?
The GI50 was 1.55 µM.

What about the TGI [13] of the same compound?
The TGI was 3.48 µM.

And the GI50 [14]?
The GI50 was 4.29 µM.

What about the TGI [14] of the same compound?
Its TGI is 33.6 µM.

And the GI50 [15]?
Its GI50 is 2.83 µM.

And the TGI [15]?
The TGI was 16.6 µM.

And the GI50 [16]?
Its GI50 is 4.49 µM.

And the TGI [16]?
Its TGI is over 100 µM.

What about the GI50 [17] of the same compound?
Its GI50 is 2.48 µM.

What about the TGI [17] of the same compound?
The TGI was 8.3 µM.

What about the GI50 [18] of the same compound?
Its GI50 is 2.1 µM.

And the TGI [18]?
The TGI was 14.6 µM.

What about the GI50 [19] of the same compound?
Its GI50 is 3.24 µM.

And the TGI [19]?
Its TGI is 10.2 µM.

What about the GI50 [20] of the same compound?
Its GI50 is 11 µM.

What about the TGI [20] of the same compound?
The TGI was 23.7 µM.

What about the GI50 [21] of the same compound?
The GI50 was 8.77 µM.

What about the TGI [21] of the same compound?
The TGI was 24 µM.

And the GI50 [22]?
Its GI50 is 2.86 µM.

What about the TGI [22] of the same compound?
The TGI was 11.7 µM.

And the GI50 [23]?
The GI50 was 5.08 µM.

What about the TGI [23] of the same compound?
The TGI was 19.7 µM.

What about the GI50 [24] of the same compound?
Its GI50 is 3.4 µM.

And the TGI [24]?
Its TGI is 19.1 µM.

And the GI50 [25]?
Its GI50 is 2.37 µM.

What about the TGI [25] of the same compound?
The TGI was 25.5 µM.

What about the GI50 [26] of the same compound?
The GI50 was 0.871 µM.

And the TGI [26]?
The TGI was 7.54 µM.

And the GI50 [27]?
The GI50 was 10.9 µM.

And the TGI [27]?
The TGI was 24.4 µM.

What about the GI50 [28] of the same compound?
Its GI50 is 1.48 µM.

And the TGI [28]?
Its TGI is 4.28 µM.

And the GI50 [29]?
The GI50 was 2.28 µM.

And the TGI [29]?
Its TGI is 7.46 µM.

And the GI50 [30]?
The GI50 was 8.23 µM.

What about the TGI [30] of the same compound?
Its TGI is 21.4 µM.

And the GI50 [31]?
The GI50 was 2 µM.

And the TGI [31]?
The TGI was 7.41 µM.

What about the GI50 [32] of the same compound?
Its GI50 is 4.21 µM.

And the TGI [32]?
Its TGI is 19.7 µM.

And the GI50 [33]?
The GI50 was 1.86 µM.

What about the TGI [33] of the same compound?
The TGI was 6.7 µM.

And the GI50 [34]?
The GI50 was 0.767 µM.

And the TGI [34]?
The TGI was 2.65 µM.

And the GI50 [35]?
The GI50 was 2.58 µM.

What about the TGI [35] of the same compound?
The TGI was 12.1 µM.

What about the GI50 [36] of the same compound?
The GI50 was 2.89 µM.

What about the TGI [36] of the same compound?
The TGI was 11.6 µM.

What about the GI50 [37] of the same compound?
Its GI50 is 2.19 µM.

What about the TGI [37] of the same compound?
Its TGI is 6.21 µM.

And the GI50 [38]?
Its GI50 is 1.39 µM.

And the TGI [38]?
Its TGI is 4.3 µM.

And the GI50 [39]?
Its GI50 is 0.901 µM.

And the TGI [39]?
Its TGI is over 100 µM.

And the GI50 [40]?
Its GI50 is 2.31 µM.

And the TGI [40]?
The TGI was over 100 µM.

And the GI50 [41]?
The GI50 was 2.83 µM.

What about the TGI [41] of the same compound?
The TGI was 16.3 µM.

And the GI50 [42]?
Its GI50 is 3.93 µM.

What about the TGI [42] of the same compound?
The TGI was 18.9 µM.

What about the GI50 [43] of the same compound?
Its GI50 is 5.95 µM.

What about the TGI [43] of the same compound?
The TGI was 23.4 µM.

And the GI50 [44]?
Its GI50 is 4.28 µM.

And the TGI [44]?
The TGI was 18.7 µM.

And the GI50 [45]?
The GI50 was 13 µM.

And the TGI [45]?
The TGI was 39 µM.

What about the GI50 [46] of the same compound?
The GI50 was 21.2 µM.

And the TGI [46]?
Its TGI is over 100 µM.

And the GI50 [47]?
The GI50 was 4.18 µM.

And the TGI [47]?
The TGI was 19.1 µM.

What about the GI50 [48] of the same compound?
Its GI50 is 2.6 µM.

And the TGI [48]?
Its TGI is 12.6 µM.

And the GI50 [49]?
The GI50 was 1.76 µM.

And the TGI [49]?
Its TGI is 3.83 µM.

And the GI50 [50]?
Its GI50 is 3.99 µM.

And the TGI [50]?
The TGI was 16.7 µM.

And the GI50 [51]?
The GI50 was 12.7 µM.

And the TGI [51]?
The TGI was 27.9 µM.

What about the GI50 [52] of the same compound?
The GI50 was 3.25 µM.

And the TGI [52]?
Its TGI is 23.3 µM.

And the GI50 [53]?
Its GI50 is 3.47 µM.

And the TGI [53]?
Its TGI is 32.2 µM.

And the GI50 [54]?
The GI50 was 5.92 µM.

And the TGI [54]?
Its TGI is 30.1 µM.

What about the GI50 [55] of the same compound?
Its GI50 is 5.59 µM.

And the TGI [55]?
Its TGI is 19.5 µM.

What about the GI50 [56] of the same compound?
The GI50 was 10.5 µM.

What about the TGI [56] of the same compound?
The TGI was over 100 µM.

What about the GI50 [57] of the same compound?
Its GI50 is 12 µM.

What about the TGI [57] of the same compound?
Its TGI is 75.7 µM.

What does the source list for `COC(=O)C1=C(C)NC(C)=C(C(=O)OC)C1c1ccccc1NO`?
TGI [1]: > 100 µM; TGI [2]: > 100 µM; TGI [3]: > 100 µM; TGI [4]: > 100 µM; TGI [5]: > 100 µM; TGI [6]: > 100 µM; TGI [7]: > 100 µM; TGI [8]: > 100 µM; TGI [9]: > 100 µM; TGI [10]: > 100 µM; TGI [11]: > 100 µM; TGI [12]: > 100 µM; TGI [13]: > 100 µM; TGI [14]: > 100 µM; TGI [15]: > 100 µM; TGI [16]: > 100 µM; TGI [17]: > 100 µM; TGI [19]: > 100 µM; TGI [20]: > 100 µM; TGI [21]: > 100 µM; TGI [22]: > 100 µM; TGI [23]: > 100 µM; TGI [24]: > 100 µM; TGI [25]: > 100 µM; TGI [26]: > 100 µM; TGI [27]: > 100 µM; TGI [28]: > 100 µM; TGI [29]: > 100 µM; TGI [30]: > 100 µM; TGI [31]: > 100 µM; TGI [32]: > 100 µM; TGI [33]: > 100 µM; TGI [34]: > 100 µM; TGI [35]: > 100 µM; TGI [36]: > 100 µM; TGI [37]: > 100 µM; TGI [38]: > 100 µM; TGI [39]: > 100 µM; TGI [40]: > 100 µM; TGI [41]: > 100 µM; TGI [42]: > 100 µM; TGI [43]: > 100 µM; TGI [44]: > 100 µM; TGI [45]: > 100 µM; TGI [58]: > 100 µM; TGI [46]: > 100 µM; TGI [47]: 48.2 µM; TGI [48]: > 100 µM; TGI [49]: > 100 µM; TGI [50]: > 100 µM; TGI [51]: > 100 µM; TGI [52]: > 100 µM; TGI [53]: > 100 µM; TGI [54]: > 100 µM; TGI [55]: > 100 µM; TGI [56]: > 100 µM; TGI [57]: > 100 µM
